In brackets after ≈: the same amount, converted by molar mass.
Legend:
[1] = tested on: E.c; experiment: Minimum Inhibitory Concentration Test, alternate (Table 4), E.c; assay type: cell-based, Escherichia coli; settings: Escherichia coli, TSB, 72 hours
Method: (§1) A 125 μl aliquot of 10,000 ppm test compound in acetone was added to 4.88 ml of TSB to provide a 250 ppm solution. From this solution, 100 μL was transferred to the first row of two microtiter plate columns. Both replicates and five additional compounds were all serially diluted 1:1 to a final concentration of 0.8 ppm in TSB.
(§2) Inoculation was accomplished by diluting a 24 hr Ps fl culture, four mls per 36 mls of phosphate buffer solution. A Dynatech autoinoculator was used to transfer 1.5 μl of this cell suspension to the microtiter plates. The plates were incubated at 30° C. for 3 days before the lowest concentration at which no growth occurs was recorded in the database. The SOK data and MIC test data on Ps.fl, Ps.ae, E.c, and S.a. bacteria and Candida albicans (C.alb), A.n and A.p fungi are listed in Table 4.

[2] = tested on: A.n; experiment: Minimum Inhibitory Concentration Test, alternate (Table 4), A.n; assay type: cell-based, Aspergillus niger; settings: Aspergillus niger, TSB, 72 hours
Method: as §1, §2

[3] = tested on: Erysiphe graminis (f. sp. tritici); experiment: whole plant or invertebrate; assay type: in vivo; settings: Blumeria graminis; read-out: % control WPM
[4] = tested on: Pseudoperonospora cubensis; experiment: whole plant or invertebrate; assay type: in vivo; settings: Pseudoperonospora cubensis, in Cucumis sativus, 168 h; read-out: % control CDM
[5] = tested on: Piricularia oryzae; experiment: whole plant or invertebrate; assay type: in vivo; settings: Pyricularia oryzae, read-out: % control RB
[6] = tested on: Puccinia recondita (f. sp. tritici Races PKB and PLD); experiment: whole plant or invertebrate; assay type: in vivo; settings: Puccinia recondita, 240 h; read-out: % control WLR
[7] = tested on: S.a; experiment: Minimum Inhibitory Concentration Test, alternate (Table 4), S.a; assay type: cell-based, Staphylococcus aureus; settings: Staphylococcus aureus, TSB, 72 hours
Method: as §1, §2

[8] = tested on: Phytophthora infestans; experiment: whole plant or invertebrate; assay type: in vivo; settings: Phytophthora infestans, in Solanum lycopersicum, 96 h, read-out: % control TLB
[9] = tested on: Ps.ae; experiment: Minimum Inhibitory Concentration Test, alternate (Table 4), Ps.ae; assay type: cell-based, Pseudomonas aerugenosa; settings: Pseudomonas, TSB, 72 hours
[10] = tested on: Pseudomonas fluorescens; experiment: Minimum Inhibitory Concentration Test, alternate (Table 4), Ps.fl; assay type: cell-based; settings: Pseudomonas fluorescens, TSB, 72 hours, 30° C
Method: as §1, §2

[11] = tested on: A.p; experiment: Minimum Inhibitory Concentration Test, alternate (Table 4), A.p; assay type: cell-based; settings: Aureobasidium pullulans, TSB, 72 hours
Method: as §1, §2

[12] = tested on: Candida albicans (C.alb); experiment: Minimum Inhibitory Concentration Test, alternate (Table 4), C.alb; assay type: cell-based; settings: Candida albicans, TSB, 72 hours
Method: as §1, §2

[13] = tested on: Pellicularia filamentosa (f. sp. sasiki); experiment: whole plant or invertebrate; assay type: in vivo; settings: 120 h; read-out: % control RSB

Structure (SMILES)	MIC [1]	MIC [2]	pest or weed control at 200 ppm [3]	pest or weed control at 200 ppm [4]	pest or weed control at 200 ppm [5]	pest or weed control at 200 ppm [6]	MIC [7]	pest or weed control at 200 ppm [8]	MIC [9]	MIC [10]	MIC [11]	MIC [12]	pest or weed control at 200 ppm [13]	pest or weed control at 100 ppm [8]	pest or weed control at 100 ppm [3]	pest or weed control at 100 ppm [4]	pest or weed control at 100 ppm [5]	pest or weed control at 100 ppm [6]	pest or weed control at 100 ppm [13]	pest or weed control at 25 ppm [6]
CCCCCCCCNC(=O)/C=C\SC(C(C)=O)C(=O)OCC (stereo not drawn) [Example 11, N-n-octyl-cis-3-[2-(ethoxy-3-oxobutanoyl)thio]acrylamide]	> 500 µg/mL	4 to 8 µg/mL (≈ 11.6 to 23.3 µM)	50%	85%	0%	50%	> 500 µg/mL	0%	> 500 µg/mL	250 to 500 µg/mL (≈ 728 to 1460 µM)	< 4 µg/mL	< 4 µg/mL	0%	–	–	–	–	–	–	–
CCCCCCCCNC(=O)/C=C\SC(C(C)=O)C(=O)NCc1ccccc1 (stereo not drawn) [Example 12, N-n-octyl-cis-3-[2-(N-benzylacetoacetamideo)thio]acrylamide]	> 500 µg/mL	4 to 16 µg/mL (≈ 9.89 to 39.5 µM)	75%	100%	75%	75%	> 500 µg/mL	–	> 500 µg/mL	125 to 500 µg/mL (≈ 309 to 1240 µM)	8 µg/mL (≈ 19.8 µM)	16 µg/mL (≈ 39.5 µM)	25%	100%	–	–	–	–	–	–
CCCCCCCCNC(=O)/C=C\SC(C(C)=O)C(=O)C1CC1 (stereo not drawn) [Example 29, N-n-octyl-cis-3-[2-(1-cyclopropyl-1,3-butanedionyl)thio]acrylamide]	> 500 µg/mL	8 to 31 µg/mL (≈ 23.6 to 91.3 µM)	0%	95%	77%	0%	> 500 µg/mL	85%	> 500 µg/mL	> 500 µg/mL	125 µg/mL (≈ 368 µM)	31 µg/mL (≈ 91.3 µM)	0%	–	–	–	–	–	–	–
CCCCCCCCNC(=O)/C=C\SC(C(C)=O)C(=O)Nc1ccccc1OC (stereo not drawn) [Example 30, N-n-octyl-cis-3-{2-[N-(2-methoxyphenyl)acetoacetamido]thio}acrylamide]	> 500 µg/mL	31 to 63 µg/mL (≈ 73.7 to 150 µM)	0%	100%	90%	0%	> 500 µg/mL	80%	500 µg/mL (≈ 1190 µM)	> 500 µg/mL	250 µg/mL (≈ 594 µM)	8 µg/mL (≈ 19 µM)	0%	–	–	–	–	–	–	–
CCCCCCCCNC(=O)/C=C\SC(C(=O)Nc1cccc(Cl)c1Cl)C(=O)OCC (stereo not drawn) [Example 35, N-n-octyl-cis-3-{2-[ethyl-N-(2,3-dichlorophenyl)malonamido]thio}acrylamide]	> 250 µg/mL	8 to 16 µg/mL (≈ 16.3 to 32.7 µM)	–	–	–	–	> 250 µg/mL	–	> 250 µg/mL	500 µg/mL (≈ 1020 µM)	< 2 µg/mL	4 µg/mL (≈ 8.17 µM)	–	95%	0%	99%	0%	50%	0%	–
CCCCCCCCNC(=O)/C=C\SC(C(=O)NC1CC1)C(=O)OCC (stereo not drawn) [Example 36, N-n-octyl-cis-3-[2-(ethyl-N-cyclopropylmalonamido)thio]acrylamide]	> 250 µg/mL	8 to 16 µg/mL (≈ 20.8 to 41.6 µM)	–	–	–	–	125 µg/mL (≈ 325 µM)	–	> 250 µg/mL	500 µg/mL (≈ 1300 µM)	< 2 µg/mL	31 µg/mL (≈ 80.6 µM)	–	47%	0%	100%	90%	50%	0%	–
CCCCCCCCNC(=O)/C=C\SC(C(=O)Nc1cc([N+](=O)[O-])ccc1Cl)C(=O)OCC (stereo not drawn) [Example 45, N-n-octyl-cis-3-{2-[ethyl-N-(2-chloro-5-nitrophenyl)malonamido]thio}acrylamide]	> 250 µg/mL	4 to 8 µg/mL (≈ 8 to 16 µM)	–	–	–	–	63 µg/mL (≈ 126 µM)	–	> 250 µg/mL	> 250 µg/mL	< 2 µg/mL	4 µg/mL (≈ 8 µM)	–	0%	0%	–	0%	–	0%	50%
CCCCCCCCNC(=O)/C=C\SC(C(=O)Nc1ccc(OC)c(Cl)c1)C(=O)OCC (stereo not drawn) [Example 50, N-n-octyl-cis-3-{2-[ethyl-N-(3-chloro-4-methoxyphenyl)malonamido]thio}acrylamide]	> 250 µg/mL	–	–	–	–	–	> 250 µg/mL	–	> 250 µg/mL	> 250 µg/mL	< 2 µg/mL	63 to 250 µg/mL (≈ 130 to 515 µM)	–	0%	0%	85%	0%	50%	0%	–
CCCCCCCCNC(=O)/C=C\SC(C(=O)Nc1ccc(OC)cc1)C(=O)OCC (stereo not drawn) [Example 58, N-n-octyl-cis-3-{2-[ethyl-N-(4-methoxyphenyl)malonamido]thio}acrylamide]	–	250 µg/mL (≈ 555 µM)	–	–	–	–	–	–	–	> 500 µg/mL	–	–	–	0%	0%	100%	0%	0%	0%	–
CCCCCCCCNC(=O)/C=C\SC(C(=O)Nc1c(C)cccc1Cl)C(=O)OCC (stereo not drawn) [Example 59, N-n-octyl-cis-3-{2-[ethyl-N-(2-chloro-6-methylphenyl)malonamido]thio}acrylamide]	–	250 µg/mL (≈ 533 µM)	–	–	–	–	–	–	–	> 250 µg/mL	–	–	–	95%	0%	99%	50%	50%	0%	–
CCCCCCCCNC(=O)/C=C\SC(C(=O)NCc1ccc(OC)cc1)C(=O)OCC (stereo not drawn) [Example 60, N-n-octyl-cis-3-{2-[ethyl-N-(4-methoxybenzyl)malonamido]thio}acrylamide]	–	> 250 µg/mL	–	–	–	–	–	–	–	> 250 µg/mL	–	–	–	80%	0%	99%	0%	0%	0%	–
CCCCCCCCNC(=O)/C=C\SC(C(=O)Nc1ncccn1)C(=O)OCC (stereo not drawn) [Example 62, N-n-octyl-cis-3-{2-[ethyl-N-(2-pyrimidinyl)malonamido]thio}acrylamide]	–	> 250 µg/mL	–	–	–	–	–	–	–	> 250 µg/mL	–	–	–	0%	0%	85%	0%	0%	0%	–
CCCCCCCCNC(=O)/C=C\SC(C(=O)NCc1ccc([N+](=O)[O-])cc1)C(=O)OCC (stereo not drawn) [Example 64, N-n-octyl-cis-3-{2-[ethyl-N-(4-nitrobenzyl)malonamido]thio}acrylamide]	–	> 250 µg/mL	–	–	–	–	–	–	–	> 250 µg/mL	–	–	–	0%	50%	100%	0%	50%	0%	–
CCCCCCCCNC(=O)/C=C\SC(C(=O)NCc1cccc([N+](=O)[O-])c1)C(=O)OCC (stereo not drawn) [Example 65, N-n-octyl-cis-3-{2-[ethyl-N-(3-nitrobenzyl)malonamido]thio}acrylamide]	–	> 250 µg/mL	–	–	–	–	–	–	–	> 250 µg/mL	–	–	–	80%	0%	100%	0%	50%	0%	–

Source: US5118681A (priority 1989, dated 1992)
